Results taken from patent publication US20130317009A1 (priority 2012, published 2013).
“And” between values parts separate entries of the source, which are not always exact repeats. Equal entries are not always repeated. Structures can show the parent of a compound that is named as a salt.

What was measured:
[1] = system: rat; test: animal or person; type: in vivo; settings: for ED50: Rattus norvegicus, 0.25 h, read-out: ED50 (95% CI) second pharmacologically active ingredient
[2] = system: male Sprague-Dawley rats; settings: rat, in vivo

SMILES	ED50 ([1]; ip) [mg/kg]	timepoint of peak effect ([1]; rat, in vivo) [min p. appl.]	% MPE (Maximum possible effect) 60 min. [2] [% MPE]	% MPE (Maximum possible effect) 180 min. [2] [% MPE]	% MPE (Maximum possible effect) 30 min. ([2]; dihydrochloride)	ED50 (95% CI) second pharmacologically active ingredient ([1]; rat, in vivo, ip)
CC[C@@H](C(N)=O)N1CCCC1=O [Levetiracetam, levetiracetam]	986	15	–	–	–	–
CCOC(=O)Nc1ccc(NCc2ccc(F)cc2)cc1N [retigabine dihydrochloride]	5.09	15	−2.0 ± 7.9	−2.8 ± 8.0	23.1 % MPE and 23.1 ± 5.0 % MPE	–
COC[C@@H](NC(C)=O)C(=O)NCc1ccccc1 [lacosamide]	35.3	15	–	–	–	–
Nc1nnc(-c2cccc(Cl)c2Cl)c(N)n1 [lamotrigine]	30	15	–	–	–	35253 μg/kg and 35253 (38082-32740) μg/kg
NC(=O)N1c2ccccc2C=Cc2ccccc21 [carbamazepine]	30	15	–	–	–	–
